Reference: patent US20060160146A1, “Method of screening compound affecting amyloid beta production” (OTSUKA PHARMACEUTICAL CO., LTD., priority 2002, published 2006)

Legend:
β-secretase = β-secretase cleavage product (sAPPβ) in culture supernatant of COS7 cells transiently expressing mutated APP, Western blotting; type: cell-based, monkey; design: key to β-cleavage: ↓: indicates a reduced amount of secretase cleavage product; →: indicates an unchanged amount of each secretase cleavage product; ↑: indicates an increased amount of secretase cleavage product; 0: indicates no detection of each secretase cleavage product; conditions: for β-cleavage: amount of sAPPβ versus wild-type APP, 48 hours after transfection
Excerpt: (§1) BE11-hAPP695 was used as a starting material which was produced by adding a BE11 epitope tag immediately after a signal peptide of the N-terminus of a human-type APP gene (FIG. 2) and incorporating it into a vector. With respect to the amino acid at the N-treminus of the α-secretase cleavage site of APP695 (lysine at position 16 of β-amyloid) or the amino acid at the C-terminus (leucine at position 17 of β-amyloid), tryptophan was introduced into position 16 and alanine, glutamic acid, lysine, proline, glutamine, and threonine were introduced into position 17 by the site-directed mutagenesis (QuickChange, Stratagene). A construct was produced in which these mutated APPs and wild-type APPs are respectively incorporated into a pCIneo mammalian expression vector (Promega), and the construct was then transfected to a COS7 cell by a liposome method (DOTAP, Boeringer Manheim), to achieve transient expression. Forty-eight hours after transfection, the cell and culture supernatant were collected, and the expressed proteins and the processing were analyzed by 8% SDS-PAGE/Western blotting. The expression of a cell membrane-associated full-length APP confirmed using the monoclonal antibody (Mab BE11) against BE11. The expression level was standardized, and then α-secretase cleavage products (sAPPα) and β-secretase cleavage products (sAPPβ) which were secreted in the culture supernatant (medium) were detected and quantified using a specific antibody against the respective products.

α-secretase = α-secretase cleavage product (sAPPα) in culture supernatant of COS7 cells transiently expressing mutated APP, Western blotting; type: cell-based, monkey; design: key to α-cleavage: ↓: indicates a reduced amount of secretase cleavage product; →: indicates an unchanged amount of each secretase cleavage product; ↑: indicates an increased amount of secretase cleavage product; 0: indicates no detection of each secretase cleavage product; conditions: for α-cleavage: amount of sAPPα versus wild-type APP, 48 hours after transfection; for amount of α-secretase cleavage product: in words, versus wild-type APP
Excerpt: as §1

Substance	β-cleavage (β-secretase)	α-cleavage (α-secretase)	amount of α-secretase cleavage product (α-secretase)	amount of β-secretase cleavage product (β-secretase; in words, versus wild-type APP)
Trp (position 16): human APP695 modified protein, lysine at position 16 of β-amyloid replaced with tryptophan	→	↓↓	sharply decreased	
Ala (position 17): human APP695 modified protein, leucine at position 17 of β-amyloid replaced with alanine	→	↓	decreased	
Pro (position 17): human APP695 modified protein, leucine at position 17 of β-amyloid replaced with proline	→	0	No α-secretase cleavage product was detected	
Lys (position 17): human APP695 modified protein, leucine at position 17 of β-amyloid replaced with lysine	↑	↓↓	decreased	slightly increased
Glu (position 17): human APP695 modified protein, leucine at position 17 of β-amyloid replaced with glutamic acid	→	0	No α-secretase cleavage product was detected	
